Measured values: patent publication US20250019701A1, “TREATMENT FOR INFLAMMATORY DISEASE” (priority 2021, published 2025)

Experiments:
[1] = system: THP-1 cells; type: cell-based, human; conditions: 48 hours ligand treatment
[2] = system: THP-1 cells; type: cell-based, human
[3] = system: A549 cells
[4] = system: A549 cells; type: cell-based, human
[5] = system: ASC; type: cell-based, human; conditions: THP-1; after ORF8 transfection; 30 uM Etifoxine or 200 nM PK11195 for 24 hours
[6] = system: Vero cells; conditions: etifoxine 30 μM, counting adherent cells
[7] = biological target: T1, NLRP3 (NLR family pyrin domain containing 3) (human, UniProt Q96P20 1-1036); assay: co-immunoprecipitation from THP-1 cells, TSPO as bait, western blot
T1 construct: Endogenous protein in the THP-1 cell lysate; also called NRLP3
T1 sequence (Q96P20 whole entry, the tested form may be a part): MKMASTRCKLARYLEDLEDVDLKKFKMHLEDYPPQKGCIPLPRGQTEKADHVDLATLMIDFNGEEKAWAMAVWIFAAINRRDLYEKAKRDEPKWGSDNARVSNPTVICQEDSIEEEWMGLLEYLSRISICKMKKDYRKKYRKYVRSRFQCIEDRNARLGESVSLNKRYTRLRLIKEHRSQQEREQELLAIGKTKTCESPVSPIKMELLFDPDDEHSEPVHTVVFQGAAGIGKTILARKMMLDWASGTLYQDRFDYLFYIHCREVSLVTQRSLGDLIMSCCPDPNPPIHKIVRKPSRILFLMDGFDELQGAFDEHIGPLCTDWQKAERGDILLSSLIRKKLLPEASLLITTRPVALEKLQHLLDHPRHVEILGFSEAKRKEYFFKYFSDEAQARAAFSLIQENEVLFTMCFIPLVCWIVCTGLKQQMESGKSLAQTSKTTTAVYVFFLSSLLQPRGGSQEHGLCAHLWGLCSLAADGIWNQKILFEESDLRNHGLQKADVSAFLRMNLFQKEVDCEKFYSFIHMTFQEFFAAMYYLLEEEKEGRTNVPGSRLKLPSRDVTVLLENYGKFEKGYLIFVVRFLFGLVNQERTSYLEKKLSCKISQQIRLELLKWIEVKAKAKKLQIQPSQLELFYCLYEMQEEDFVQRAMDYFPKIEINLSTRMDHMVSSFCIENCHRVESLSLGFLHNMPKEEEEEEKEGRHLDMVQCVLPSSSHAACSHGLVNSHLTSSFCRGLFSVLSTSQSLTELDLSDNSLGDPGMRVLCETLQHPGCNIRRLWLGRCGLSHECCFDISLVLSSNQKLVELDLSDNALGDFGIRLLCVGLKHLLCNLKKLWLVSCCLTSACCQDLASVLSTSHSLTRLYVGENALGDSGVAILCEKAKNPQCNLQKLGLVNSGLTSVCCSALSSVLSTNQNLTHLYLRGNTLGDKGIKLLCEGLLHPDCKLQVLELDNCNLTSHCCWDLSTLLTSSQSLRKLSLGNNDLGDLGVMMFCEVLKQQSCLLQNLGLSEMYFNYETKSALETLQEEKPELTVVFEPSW

Molecule | PI cell death (qualitative) [1] | cell death by LDH release (qualitative) [2] | PI cell death, ORF3a induced cytotoxicity (qualitative) [3] | cell death by LDH release (qualitative) [4] | ASC protein levels co-immunoprecipitated with TSPO (qualitative) [5] | reduction of cell death [6] | binding result [7]
CCCCCCN(CCCCCC)C(=O)Cc1c(-c2ccc(F)cc2)[nH]c2ccccc12 [FGIN, FGIN 1-27] | decrease | confer cytoprotection | significant decrease | confer cytoprotection |  |  | 
CCC(C)N(C)C(=O)c1cc2ccccc2c(-c2ccccc2Cl)n1 (stereo not shown) [PK11195] | decrease | confer cytoprotection | significant decrease | confer cytoprotection | decrease in protein levels |  | 
CCN(Cc1ccccc1)C(=O)Cn1c(=O)n(C)c2cnc(-c3ccccc3)nc21 [XBD173] | decrease | confer cytoprotection | significant decrease | confer cytoprotection |  |  | 
CCNC1=Nc2ccc(Cl)cc2C(C)(c2ccccc2)O1 (stereo not shown) [etifoxine] |  | confer cytoprotection | significant decrease | confer cytoprotection | decrease in protein levels | approximately 50% | 
TSPO (the 18 kDa translocator protein) (other, also called peripheral benzodiazepine receptor) APPWVPAMGFTLAPSLGCFVGSRFVHGEGLRWYAGLQKPSWHPPHWVLGPVWGTLYSAMGYGSYLVWKELGGFTEKAVVPLGLYTGQLALNWAWPPIFFGARQMGWALVDLLLVSGAAAATTVAWYQVSPLAARLLYPYLAWLAFTTTLNYCVWRDNHGWRGGRRLPE |  |  |  |  |  |  | no binding
